Test results from patent publication US11479559B2, “Urea-substituted aromatic ring-linked dioxinoquinoline compounds, preparation method and uses thereof” (BEIJING SCITECH-MQ PHARMACEUTICALS LIMITED, priority 2018, dated 2022).
Like-named read-outs stand apart in the source and are kept apart here.

Tests used:
RET tyrosine kinase = RET tyrosine kinase (Homo sapiens (Human), UniProt P07949); assay: Assay of small molecular compounds for inhibiting the activity of RET kinase (LANCE TR-FRET)
VEGFR2 tyrosine kinase = VEGFR2 tyrosine kinase (Homo sapiens (Human), UniProt P35968); assay: Assay of small molecular compounds for inhibiting the activity of VEGFR-2 kinase (LANCE TR-FRET)
Sequence of VEGFR2 tyrosine kinase (P35968 20-1356): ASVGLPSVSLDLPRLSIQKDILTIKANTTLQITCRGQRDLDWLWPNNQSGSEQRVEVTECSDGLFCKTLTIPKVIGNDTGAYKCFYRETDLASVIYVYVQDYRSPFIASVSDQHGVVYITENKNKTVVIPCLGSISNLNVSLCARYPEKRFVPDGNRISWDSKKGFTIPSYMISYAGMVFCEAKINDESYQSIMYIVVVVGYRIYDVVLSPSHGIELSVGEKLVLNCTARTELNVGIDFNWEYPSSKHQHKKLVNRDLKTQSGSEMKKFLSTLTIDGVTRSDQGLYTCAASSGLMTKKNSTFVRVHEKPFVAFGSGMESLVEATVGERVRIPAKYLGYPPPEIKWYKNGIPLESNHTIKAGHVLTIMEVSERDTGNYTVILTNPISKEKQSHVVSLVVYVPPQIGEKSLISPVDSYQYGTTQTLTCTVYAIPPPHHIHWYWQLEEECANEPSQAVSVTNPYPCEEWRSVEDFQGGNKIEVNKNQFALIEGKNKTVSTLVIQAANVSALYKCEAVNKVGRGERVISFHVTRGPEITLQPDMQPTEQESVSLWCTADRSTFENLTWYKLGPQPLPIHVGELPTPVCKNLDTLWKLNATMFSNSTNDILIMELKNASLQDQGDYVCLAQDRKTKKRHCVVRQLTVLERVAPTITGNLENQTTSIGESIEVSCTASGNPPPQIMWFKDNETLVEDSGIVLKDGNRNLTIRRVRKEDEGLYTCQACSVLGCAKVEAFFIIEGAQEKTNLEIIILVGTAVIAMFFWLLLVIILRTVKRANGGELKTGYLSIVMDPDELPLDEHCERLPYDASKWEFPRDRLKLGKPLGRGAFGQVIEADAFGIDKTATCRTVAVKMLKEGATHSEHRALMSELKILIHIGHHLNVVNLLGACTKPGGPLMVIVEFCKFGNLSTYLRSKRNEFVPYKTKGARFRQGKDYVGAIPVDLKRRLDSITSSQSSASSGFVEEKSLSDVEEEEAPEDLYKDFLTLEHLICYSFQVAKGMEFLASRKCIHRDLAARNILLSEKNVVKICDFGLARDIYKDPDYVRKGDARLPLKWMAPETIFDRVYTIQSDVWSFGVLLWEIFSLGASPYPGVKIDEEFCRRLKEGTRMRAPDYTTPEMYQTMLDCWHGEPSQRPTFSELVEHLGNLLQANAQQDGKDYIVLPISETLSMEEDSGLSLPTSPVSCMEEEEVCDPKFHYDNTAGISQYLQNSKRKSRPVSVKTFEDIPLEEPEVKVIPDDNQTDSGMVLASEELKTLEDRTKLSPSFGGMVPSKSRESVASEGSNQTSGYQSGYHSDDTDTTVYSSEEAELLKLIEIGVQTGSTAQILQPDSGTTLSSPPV
Description: The assay is based on the LANCE TR-FRET technology of Perkin Elmer Inc., and the assay method is as follows:
2.5 μL of the gradient-diluted compounds were taken with a transfer pipette to a 384-well plate.
Addition of enzyme: 5 μL of 2× VEGFR2 kinase solution (concentration was 0.5 nM) was taken with a transfer pipette to the corresponding reaction well of the 384-well plate, mixed well and pre-reacted at room temperature for 30 minutes.
2.5 μL 4× Ultra ULight™-JAK-1 (Tyr1023) Peptide (concentration was 200 nM)/ATP (concentration was 40 μMM) mixture was taken with a transfer pipette to the corresponding reaction well of the 384-well plate.
Negative control: 2.5 μL/well 4× substrate/ATP mixture and 7.5 μL 1× Kinase Assay Buffer were added to the wells of the 384-well plate.
The final concentration of DMSO in the reaction system was 4%.
The mixture was mixed well and then centrifuged and reacted at room temperature in dark for 60 min.
The 384-well plate was placed into the Envision plate reader and the signal was detected using the appropriate program.

Sequence of RET tyrosine kinase (P07949 29-1114): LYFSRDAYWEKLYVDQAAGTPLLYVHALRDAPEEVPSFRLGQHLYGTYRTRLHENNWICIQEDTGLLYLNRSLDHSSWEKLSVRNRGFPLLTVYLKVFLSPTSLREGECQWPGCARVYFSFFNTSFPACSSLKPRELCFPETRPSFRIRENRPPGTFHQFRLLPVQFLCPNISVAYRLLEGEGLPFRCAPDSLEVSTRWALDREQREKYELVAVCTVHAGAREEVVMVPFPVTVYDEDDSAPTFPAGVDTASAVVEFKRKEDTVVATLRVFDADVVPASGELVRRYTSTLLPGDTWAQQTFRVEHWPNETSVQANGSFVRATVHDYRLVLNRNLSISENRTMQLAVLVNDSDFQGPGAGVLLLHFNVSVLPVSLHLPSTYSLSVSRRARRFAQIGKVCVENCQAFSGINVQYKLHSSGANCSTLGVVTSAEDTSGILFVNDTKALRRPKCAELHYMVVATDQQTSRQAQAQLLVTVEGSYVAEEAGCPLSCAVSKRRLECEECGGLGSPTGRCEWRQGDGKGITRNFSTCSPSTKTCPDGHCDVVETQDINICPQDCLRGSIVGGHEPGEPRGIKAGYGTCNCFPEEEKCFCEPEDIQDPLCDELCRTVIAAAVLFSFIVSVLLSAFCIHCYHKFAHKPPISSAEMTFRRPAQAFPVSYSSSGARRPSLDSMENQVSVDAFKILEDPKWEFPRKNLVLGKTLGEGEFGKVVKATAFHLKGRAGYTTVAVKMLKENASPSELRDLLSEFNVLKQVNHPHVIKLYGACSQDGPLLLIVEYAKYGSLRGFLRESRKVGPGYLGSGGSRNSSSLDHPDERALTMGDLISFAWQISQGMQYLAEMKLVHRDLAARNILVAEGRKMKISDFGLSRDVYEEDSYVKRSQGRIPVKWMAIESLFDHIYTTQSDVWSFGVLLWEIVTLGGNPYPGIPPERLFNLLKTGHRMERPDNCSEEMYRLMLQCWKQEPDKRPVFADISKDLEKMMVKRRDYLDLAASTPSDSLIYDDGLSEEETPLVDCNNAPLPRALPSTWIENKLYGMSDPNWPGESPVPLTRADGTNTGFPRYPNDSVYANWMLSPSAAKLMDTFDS

Row | IC50 (RET tyrosine kinase; read-out: RET IC50) | IC50 (VEGFR2 tyrosine kinase) | IC50 (VEGFR2 tyrosine kinase; read-out: VEGFR-2 IC50) | IC50 (RET tyrosine kinase) | Structure (SMILES)
1 | < 50 nM | 50 to 500 nM |  |  | Cc1ccc(C(F)(F)F)cc1NC(=O)Nc1ccc(Oc2ccnc3cc(OCCCN4CCOCC4)c4c(c23)OCCO4)cc1 [Example 96, 1-(2-methyl-5-(trifluoromethyl)phenyl)-3-(4-((5-(3-morpholinopropoxy)-2,3-dihydro-[1,4]dioxino[2,3-f]quinolin-10-yl)oxy)phenyl)urea]
2 | < 50 nM |  | < 50 nM |  | CN(CCCOc1cc2nccc(Oc3ccc(NC(=O)NC4CC4)c(Cl)c3)c2c2c1OCCO2)C1CCC1 [Example 63, 1-(2-chloro-4-((5-(3-(cyclobutyl(methyl)amino)propoxy)-2,3-dihydro-[1,4]dioxino[2,3-f]quinolin-10-yl)oxy)phenyl)-3-cyclopropylurea]
3 | < 50 nM |  | < 50 nM |  | CN(C)CCCOc1cc2nccc(Oc3ccc(NC(=O)NC4CC4)c(Cl)c3)c2c2c1OCCO2 [Example 52, 1-(2-chloro-4-((5-(3-(dimethylamino)propoxy)-2,3-dihydro-[1,4]dioxino[2,3-f]quinolin-10-yl)oxy)phenyl)-3-cyclopropylurea]
4 | < 50 nM |  | < 50 nM |  | N#CCCCOc1cc2nccc(Oc3ccc(NC(=O)NC4CC4)c(Cl)c3)c2c2c1OCCO2 [Example 93, 1-(2-chloro-4-((5-(3-cyanopropoxy)-2,3-dihydro-[1,4]dioxino[2,3-f]quinolin-10-yl)oxy)phenyl)-3-cyclopropylurea]
5 | < 50 nM |  | < 50 nM |  | CC(C)NC(=O)Nc1ccc(Oc2ccnc3cc(OCCCN4CCOCC4)c4c(c23)OCCO4)cc1Cl [Example 88, 1-(2-chloro-4-((5-(3-morpholinopropoxy)-2,3-dihydro-[1,4]dioxino[2,3-f]quinolin-10-yl)oxy)phenyl)-3-isopropylurea]
6 | < 50 nM |  | < 50 nM |  | CC1(O)CCN(CCCOc2cc3nccc(Oc4ccc(NC(=O)NC5CC5)c(Cl)c4)c3c3c2OCCO3)CC1 [Example 60, 1-(2-chloro-4-((5-(3-(4-hydroxy-4-methylpiperidin-1-yl)propoxy)-2,3-dihydro-[1,4]dioxino[2,3-f]quinolin-10-yl)oxy)phenyl)-3-cyclopropylurea]
7 |  | < 50 nM |  | < 50 nM | CCNC(=O)Nc1ccc(Oc2ccnc3cc(OCCCN4CCOCC4)c4c(c23)OCCO4)cc1Cl [Example 86, 1-(2-chloro-4-((5-(3-morpholinopropoxy)-2,3-dihydro-[1,4]dioxino[2,3-f]quinolin-10-yl)oxy)phenyl)-3-ethylurea]
8 | < 50 nM |  | < 50 nM |  | CC1(N)CCN(CCCOc2cc3nccc(Oc4ccc(NC(=O)NC5CC5)c(Cl)c4)c3c3c2OCCO3)CC1 [Example 61, 1-(4-((5-(3-(4-amino-4-methylpiperidin-1-yl)propoxy)-2,3-dihydro-[1,4]dioxino[2,3-f]quinolin-10-yl)oxy)-2-chlorophenyl)-3-cyclopropylurea]
9 | < 50 nM |  | < 50 nM |  | CN(C)CCCOc1cc2nccc(Oc3ccc(NC(=O)Nc4ccc(Cl)c(C(F)(F)F)c4)cc3)c2c2c1OCCO2 [Example 17, 1-(4-chloro-3-(trifluoromethyl)phenyl)-3-(4-((5-(3-(dimethylamino)propoxy)-2,3-dihydro-[1, 4]dioxino[2,3-f]quinolin-10-yl)oxy)phenyl)urea]
10 | < 50 nM |  | < 50 nM |  | CN1CCN(CCCOc2cc3nccc(Oc4ccc(NC(=O)Nc5ccc(Cl)c(C(F)(F)F)c5)cc4)c3c3c2OCCO3)CC1 [Example 21, 1-(4-chloro-3-(trifluoromethyl)phenyl)-3-(4-((5-(3-(4-methylpiperazin-1-yl)propoxy)-2,3-dihydro-[1,4]dioxino[2,3-f]quinolin-10-yl)oxy)phenyl)urea]
11 | < 50 nM |  | < 50 nM |  | O=C(Nc1ccc(Oc2ccnc3cc(OCCCN4CCOCC4)c4c(c23)OCCO4)cc1Cl)NC1CCC1 [Example 74, 1-(2-chloro-4-((5-(3-morpholinopropoxy)-2,3-dihydro-[1,4]dioxino[2,3-f]quinolin-10-yl)oxy)phenyl)-3-cyclobutylurea]
12 | < 50 nM |  | < 50 nM |  | O=C(Nc1ccc(F)cc1)Nc1ccc(Oc2ccnc3cc(OCCCN4CCOCC4)c4c(c23)OCCO4)cc1 [Example 77, 1-(4-fluorophenyl)-3-(4-((5-(3-morpholinopropoxy)-2,3-dihydro-[1,4]dioxino[2,3-f]quinolin-10-yl)oxy)phenyl)urea]
13 | < 50 nM |  | < 50 nM |  | CC1(N)CCN(CCCOc2cc3nccc(Oc4ccc(NC(=O)Nc5ccc(Cl)c(C(F)(F)F)c5)cc4)c3c3c2OCCO3)CC1 [Example 26, 1-(4-((5-(3-(4-amino-4-methylpiperidin-1-yl)propoxy)-2,3-dihydro-[1,4]dioxino[2,3-f]quinolin-10-yl)oxy)phenyl)-3-(4-chloro-3-(trifluoromethyl)phenyl)urea]
14 | < 50 nM |  | < 50 nM |  | CC(C)CNC(=O)Nc1ccc(Oc2ccnc3cc(OCCCN4CCOCC4)c4c(c23)OCCO4)cc1Cl [Example 89, 1-(2-chloro-4-((5-(3-morpholinopropoxy)-2,3-dihydro-[1,4]dioxino[2,3-f]quinolin-10-yl)oxy)phenyl)-3-isobutylurea]
15 | < 50 nM |  | < 50 nM |  | O=C(Nc1ccc(Oc2ccnc3cc(OCCCN4CCOCC4)c4c(c23)OCCO4)cc1Cl)NC1CC1 [Example 55, 1-(2-chloro-4-((5-(3-morpholinopropoxy)-2,3-dihydro-[1,4]dioxino[2,3-f]quinolin-10-yl)oxy)phenyl)-3-cyclopropylurea]
16 | < 50 nM |  | < 50 nM |  | O=C(Nc1ccc(Oc2ccnc3cc(OCCCN4CCS(=O)(=O)CC4)c4c(c23)OCCO4)cc1Cl)NC1CC1 [Example 58, 1-(2-chloro-4-((5-(3-(1,1-dioxothiomorpholino)propoxy)-2,3-dihydro-[1,4]dioxino[2,3-f]quinolin-10-yl)oxy)phenyl)-3-cyclopropylurea]
17 | < 50 nM |  | < 50 nM |  | O=C(Nc1ccc(Oc2ccnc3cc(OCCCN4CCCC4)c4c(c23)OCCO4)cc1)Nc1ccc(Cl)c(C(F)(F)F)c1 [Example 18, 1-(4-chloro-3-(trifluoromethyl)phenyl)-3-(4-((5-(3-(pyrrolidin-1-yl)propoxy)-2,3-dihydro-[1,4]dioxino[2,3-f]quinolin-10-yl)oxy)phenyl)urea]
18 | < 50 nM |  | < 50 nM |  | COCCCOc1cc2nccc(Oc3ccc(NC(=O)NC4CCC4)c(Cl)c3)c2c2c1OCCO2 [Example 72, 1-(2-chloro-4-((5-(3-methoxypropoxy)-2,3-dihydro-[1,4]dioxino[2,3-f]quinolin-10-yl)oxy)phenyl)-3-cyclobutylurea]
19 | < 50 nM |  | < 50 nM |  | CN1CCN(CCCOc2cc3nccc(Oc4ccc(NC(=O)NC5CC5)c(Cl)c4)c3c3c2OCCO3)CC1 [Example 56, 1-(2-chloro-4-((5-(3-(4-methylpiperazin-1-yl)propoxy)-2,3-dihydro-[1,4]dioxino[2,3-f]quinolin-10-yl)oxy)phenyl)-3-cyclopropylurea]
20 | < 50 nM |  | < 50 nM |  | O=C(Nc1ccc(Oc2ccnc3cc(OCCCO)c4c(c23)OCCO4)cc1Cl)NC1CC1 [Example 50, 1-(2-chloro-4-((5-(3-hydroxypropoxy)-2,3-dihydro-[1,4]dioxino[2,3-f]quinolin-10-yl)oxy)phenyl)-3-cyclopropylurea]
